Assay results from US20210353648A1, “GRAPIPRANT UNIT DOSAGE FORMS” (Arrys Therapeutics, Inc., priority 2018, published 2021).

How the values were obtained:
[1] = Phase 1 single ascending dose study of grapiprant OPC: safety and tolerability; assay type: in vivo
Description: Eligible subjects were to be enrolled into 8 sequential cohorts, corresponding to the planned dose levels of 1 mg, 3 mg, 10 mg, 30 mg, 100 mg, 300 mg, 600 mg, and 1000 mg. […] After determining a maximum tolerated dose (MTD), or after completing the highest dose cohort if a MTD was not determined, Cohort 11 would be enrolled to increase the number of subjects evaluated at the MTD (or the highest dose).
In each dosing period, subjects were confined to the Clinical Research Unit (CRU) for approximately 60 hours (from approximately 36 hours predose through 24 hours postdose), and were instructed to return to the study site at 48 hours postdose for collection of blood samples for safety and pharmacokinetic evaluations. Subjects had triplicate ECG measurements made at select time-points on Day 0 (to provide a time-matched baseline) and through 24 hours postdose. Continuous cardiac monitoring by telemetry was performed for 12 hours postdose (or up to 24 hours, if warranted, based on the pharmacokinetic data). Creatine phosphokinase (CPK; total CPK and CPK-MB isoenzyme) and troponin I levels were monitored predose and at 12 and 24 hours postdose. In each dosing period, blood samples were collected predose and at 0.5, 1, 1.5, 2, 2.5, 3, 4, 6, 8, 12, 16, 24, and 48 hours postdose for pharmacokinetic evaluation. Fecal occult blood was monitored predose and through 48 hours postdose. Urine was collected through 24 hours postdose for exploratory biotransformation analyses. Since grapiprant may be a substrate of efflux transporters, genotyping for P-gp, an efflux transporter, was also planned for this study.
Safety: All subjects were evaluated for safety. Subjects were queried regarding adverse events (AEs) at 24 hours prior to dosing, 0 hours predose (baseline), and 1, 2, 4, 8, and 12 hours postdose. A limited physical examination, clinical laboratory tests, and fecal occult blood test were performed 24 hours prior to dosing. Vital signs measurements and 12-lead ECGs were performed in triplicate (approximately 2 minutes apart) at specified intervals in the 24 hours before dosing, 0 hours (predose), and at 0.5, 1, 1.5, 2, 3, 4, 8, and 12 hours postdose. Continuous cardiac telemetry monitoring was started at 1 hour postdose and continued for 12 hours postdose Fecal occult blood was monitored for 48 hours postdose.

[2] = Phase 1 multiple ascending dose study of grapiprant tablets: urine pharmacokinetics; assay type: in vivo, human; details: for CLR/Fu: mean; for AE / AE/Dose: urine; for AE / AE/Dose / CL renal: mean (SD); for CL renal: human, urine and serum
Description: Urine pharmacokinetic parameters can be used to assess the amount of parent drug excreted unchanged in the urine. The urine pharmacokinetic parameters can be calculated under the assumption that the amount of grapiprant excreted unchanged in the urine over the dosing interval was at steady state on the last day of dosing for the 14 day and 17 day oral administration described herein. As used herein, the term “AE” refers to the amount of parent drug excreted from 0-12 hours post dose on day 14 or day 17, calculated by (Urine Grapiprant Concentration×Urine Volume). As used herein, the term “AE/Dose” refers to percent of Dose renally excreted unchanged on day 14 or day 17, calculated by (AE/Dose)×100. As used herein, the term “CLR” refers to renal clearance on day 14 or day 17, calculated by (AE/AUCτ). As used herein, the term “CLR/Fu” refers to renal clearance of unbound drug, calculated by (CLR/Fu), where the fraction of drug in the serum not bound to proteins (Fu) is determined from in vitro human serum protein binding data.
Serial urine samples for PK evaluations of grapiprant were collected on Day 14 for up to 48 hours postdose (Cohorts 1-3) or on Day 17 for up to 24 hours postdose (Cohorts 5 and 6).
Grapiprant was extracted from the urine by protein precipitation, and then analyzed by a validated LC/MS/MS method. The dynamic range of the assay was 1.00 to 600 μg/mL. The following parameters were calculated under the assumption that the amount of grapiprant excreted unchanged in the urine over the dosing interval was at steady state on the 14th day of dosing: amount of parent drug excreted (AE), percent of dose renally excreted unchanged (AE/dose), renal clearance (CLR), and renal clearance of unbound drug (CLR/Fu).

[3] = 50 mg BID (n = 8), after 14 days of multiple oral dosing, healthy adults
[4] = 150 mg BID (n = 9), after 14 days of multiple oral dosing, healthy adults
[5] = 250 mg BID (Elderly) (n = 14), after 14 days of multiple oral dosing (Day 17)
[6] = 300 mg BID (n = 9), after 14 days of multiple oral dosing, healthy adults

CCc1nc2c(C)nc(C)cc2n1-c1ccc(CCNC(=O)NS(=O)(=O)c2ccc(C)cc2)cc1 [Grapiprant, N-((4-(2-ethyl-4,6-dimethyl-1H-imidazo[4,5-c]pyridin-1-yl)phenethyl)carbamoyl)-4-methylbenzenesulfonamide]
subjects reporting abdominal pain ([1]; 30 mg): 1 subject | SAEs ([1]; 1 subject at 600 mg (not related), 1 each at 1500 mg and 2000 mg): Three subjects experienced SAEs | subjects reporting abdominal pain ([1]; 1500 mg): 2 subjects | incidence of AEs ([1]; 1500 mg treatment group): 4 of 6 subjects | subjects reporting abdominal pain ([1]; 2000 mg): 4 subjects | incidence of AEs ([1]; 2000 mg treatment group): 5 of 6 subjects | serum creatinine and BUN (COSTART term: acute renal failure) ([1]; 2 subjects, 1 each at 1500 mg and 2000 mg): mild, treatment-related elevations in serum creatinine and BUN | subjects experiencing AEs ([1]; 26 of the 61 subjects treated, single doses 1 mg to 2000 mg): 43% | deaths or discontinuations due to AEs ([1]; all dose levels): No deaths or discontinuations due to AEs | fecal occult blood ([1]; all dose levels): No positive results for fecal occult blood tests | vital signs measurements, cardiac telemetry, ECG parameters ([1]; all dose levels): No clinically important, study drug-related changes | subjects with treatment-related abdominal pain ([1]; among the 12 subjects who received 1500 or 2000 mg): 6 subjects | tolerability ([1]; single doses ranging from 1 mg to 1000 mg): generally well tolerated | CLR/Fu [2, 3]: 6120 mL/min | AE [2, 3]: 10.6 (3.18) mg | AE/Dose [2, 3]: 21.2 (6.37) % | CLR/Fu [2, 4]: 6000 mL/min | AE [2, 4]: 33.3 (11.2) mg | AE/Dose [2, 4]: 22.2 (7.48) % | CLR/Fu [2, 5]: 2720 mL/min | AE [2, 5]: 57.9 (18.7) mg | AE/Dose [2, 5]: 23.2 (7.48) % | CLR/Fu [2, 6]: 4840 mL/min | AE [2, 6]: 82.4 (27.1) mg | AE/Dose [2, 6]: 27.5 (9.05) % | renal clearance corrected for protein binding compared with GFR ([2]; healthy and elderly subjects): much greater than the glomerular filtration rate | CL renal [2, 3]: 56.3 mL/min | CL renal [2, 4]: 55.2 mL/min | CL renal [2, 5]: 25 mL/min | CL renal [2, 6]: 44.5 mL/min
